Measurements from PMC8213057, “Targeting ALK2: An Open Science Approach to Developing Therapeutics for the Treatment of Diffuse Intrinsic Pontine Glioma” (Journal of Medicinal Chemistry, 2020).

What was measured:
SYK = SYK (Homo sapiens, UniProt P43405); test: biochemical; conditions: read-out: % enzyme activity, 1 μM; Run 1, Run 2
LRRK2 = LRRK2 (Homo sapiens, UniProt Q5S007); conditions: 1 μM; Run 1, Run 2
NEK1 = target: T1, NEK1 (Homo sapiens, UniProt Q96PY6); conditions: 1 μM; Run 1, Run 2
T1 sequence (Q96PY6 1-1258): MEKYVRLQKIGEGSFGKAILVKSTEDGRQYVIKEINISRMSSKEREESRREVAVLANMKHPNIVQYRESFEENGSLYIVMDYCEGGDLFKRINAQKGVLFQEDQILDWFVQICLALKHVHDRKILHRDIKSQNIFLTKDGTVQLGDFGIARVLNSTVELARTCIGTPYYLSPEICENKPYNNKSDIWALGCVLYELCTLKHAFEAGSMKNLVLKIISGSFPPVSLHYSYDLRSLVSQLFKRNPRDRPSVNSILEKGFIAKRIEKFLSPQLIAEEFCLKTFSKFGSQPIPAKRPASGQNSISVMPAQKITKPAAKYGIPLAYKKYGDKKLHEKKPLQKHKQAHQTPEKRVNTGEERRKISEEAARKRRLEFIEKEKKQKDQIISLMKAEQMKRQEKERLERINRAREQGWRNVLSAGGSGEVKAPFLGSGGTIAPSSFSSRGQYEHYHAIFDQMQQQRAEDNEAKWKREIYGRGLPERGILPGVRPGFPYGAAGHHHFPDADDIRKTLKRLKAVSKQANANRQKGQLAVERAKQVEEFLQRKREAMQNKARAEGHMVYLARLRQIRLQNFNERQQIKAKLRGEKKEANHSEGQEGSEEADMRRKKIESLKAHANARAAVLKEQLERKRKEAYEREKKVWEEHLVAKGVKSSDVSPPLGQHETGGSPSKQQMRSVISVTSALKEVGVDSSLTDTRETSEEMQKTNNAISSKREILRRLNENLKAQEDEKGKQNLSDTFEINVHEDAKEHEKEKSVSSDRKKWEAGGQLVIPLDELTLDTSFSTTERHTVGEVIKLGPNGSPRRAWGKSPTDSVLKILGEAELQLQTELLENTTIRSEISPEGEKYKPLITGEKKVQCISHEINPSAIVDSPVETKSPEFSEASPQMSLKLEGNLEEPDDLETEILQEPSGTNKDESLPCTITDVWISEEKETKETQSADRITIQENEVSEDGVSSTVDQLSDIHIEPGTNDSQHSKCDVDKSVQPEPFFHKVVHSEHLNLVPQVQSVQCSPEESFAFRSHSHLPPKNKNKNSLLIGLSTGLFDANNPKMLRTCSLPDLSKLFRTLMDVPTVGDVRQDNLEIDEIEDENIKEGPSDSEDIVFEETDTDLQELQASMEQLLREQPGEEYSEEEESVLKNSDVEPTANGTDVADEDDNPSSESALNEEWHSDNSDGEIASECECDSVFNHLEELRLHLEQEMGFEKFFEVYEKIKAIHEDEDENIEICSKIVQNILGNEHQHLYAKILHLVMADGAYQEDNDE

CAMK2g = CAMK2g (Homo sapiens, UniProt Q13555); test: biochemical; conditions: read-out: % enzyme activity, 1 μM; Run 1, Run 2
Sequence of CAMK2g (Q13555 whole entry): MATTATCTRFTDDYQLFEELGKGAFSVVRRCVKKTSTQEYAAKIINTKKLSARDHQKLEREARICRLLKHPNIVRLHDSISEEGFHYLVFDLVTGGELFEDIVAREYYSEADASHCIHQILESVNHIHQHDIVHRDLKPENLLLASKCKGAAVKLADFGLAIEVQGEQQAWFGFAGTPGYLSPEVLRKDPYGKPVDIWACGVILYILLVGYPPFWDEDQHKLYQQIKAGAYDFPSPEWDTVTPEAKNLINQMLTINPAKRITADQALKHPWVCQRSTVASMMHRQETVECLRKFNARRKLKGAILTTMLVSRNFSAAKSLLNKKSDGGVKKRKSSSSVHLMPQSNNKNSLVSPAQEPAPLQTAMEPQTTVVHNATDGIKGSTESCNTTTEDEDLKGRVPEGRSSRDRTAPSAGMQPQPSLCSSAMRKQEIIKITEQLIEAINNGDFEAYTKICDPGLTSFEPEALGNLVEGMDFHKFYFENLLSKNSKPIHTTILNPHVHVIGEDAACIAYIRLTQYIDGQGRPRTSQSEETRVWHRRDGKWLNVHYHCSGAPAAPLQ

STK22D/TSSK1 = target: T2, STK22D/TSSK1 (Homo sapiens, UniProt Q9BXA7); conditions: 1 μM; Run 1, Run 2
T2 sequence (Q9BXA7 1-367): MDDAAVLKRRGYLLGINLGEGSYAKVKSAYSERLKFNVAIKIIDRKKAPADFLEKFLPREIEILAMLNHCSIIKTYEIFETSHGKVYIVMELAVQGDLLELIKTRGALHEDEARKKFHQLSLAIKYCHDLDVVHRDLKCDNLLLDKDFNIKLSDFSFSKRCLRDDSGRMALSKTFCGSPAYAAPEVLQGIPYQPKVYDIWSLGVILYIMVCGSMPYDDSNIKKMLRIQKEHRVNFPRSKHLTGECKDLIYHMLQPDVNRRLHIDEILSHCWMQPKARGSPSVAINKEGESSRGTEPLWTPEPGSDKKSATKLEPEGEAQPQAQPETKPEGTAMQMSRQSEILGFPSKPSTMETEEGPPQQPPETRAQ

BRSK2 = target: T3, BRSK2 (Homo sapiens, UniProt Q8IWQ3); test: biochemical; conditions: read-out: % enzyme activity, 1 μM; Run 1, Run 2
T3 sequence (Q8IWQ3 1-736): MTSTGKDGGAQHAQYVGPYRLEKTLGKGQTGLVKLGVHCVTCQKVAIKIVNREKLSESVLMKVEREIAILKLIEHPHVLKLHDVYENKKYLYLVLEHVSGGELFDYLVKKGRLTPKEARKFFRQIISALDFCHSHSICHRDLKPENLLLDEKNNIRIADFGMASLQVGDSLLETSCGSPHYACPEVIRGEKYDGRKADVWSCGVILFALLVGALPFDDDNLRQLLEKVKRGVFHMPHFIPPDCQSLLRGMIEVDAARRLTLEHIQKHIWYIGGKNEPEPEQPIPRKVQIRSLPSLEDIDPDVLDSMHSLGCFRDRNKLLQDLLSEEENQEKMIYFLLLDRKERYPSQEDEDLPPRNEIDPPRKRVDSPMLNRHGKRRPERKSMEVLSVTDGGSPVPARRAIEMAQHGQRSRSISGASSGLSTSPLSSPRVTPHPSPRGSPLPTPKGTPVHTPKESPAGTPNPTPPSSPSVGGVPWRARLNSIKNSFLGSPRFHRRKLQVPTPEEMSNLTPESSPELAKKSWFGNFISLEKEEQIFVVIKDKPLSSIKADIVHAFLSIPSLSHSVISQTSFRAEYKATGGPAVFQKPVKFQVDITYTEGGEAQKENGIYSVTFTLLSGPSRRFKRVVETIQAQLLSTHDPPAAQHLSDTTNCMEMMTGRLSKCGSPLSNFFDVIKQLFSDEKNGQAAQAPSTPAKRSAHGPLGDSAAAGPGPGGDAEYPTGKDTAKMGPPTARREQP

MRCKb/CDC42BPB = MRCKb/CDC42BPB (Homo sapiens, UniProt Q9Y5S2); conditions: 1 μM; Run 1, Run 2
Sequence of MRCKb/CDC42BPB (Q9Y5S2 whole entry): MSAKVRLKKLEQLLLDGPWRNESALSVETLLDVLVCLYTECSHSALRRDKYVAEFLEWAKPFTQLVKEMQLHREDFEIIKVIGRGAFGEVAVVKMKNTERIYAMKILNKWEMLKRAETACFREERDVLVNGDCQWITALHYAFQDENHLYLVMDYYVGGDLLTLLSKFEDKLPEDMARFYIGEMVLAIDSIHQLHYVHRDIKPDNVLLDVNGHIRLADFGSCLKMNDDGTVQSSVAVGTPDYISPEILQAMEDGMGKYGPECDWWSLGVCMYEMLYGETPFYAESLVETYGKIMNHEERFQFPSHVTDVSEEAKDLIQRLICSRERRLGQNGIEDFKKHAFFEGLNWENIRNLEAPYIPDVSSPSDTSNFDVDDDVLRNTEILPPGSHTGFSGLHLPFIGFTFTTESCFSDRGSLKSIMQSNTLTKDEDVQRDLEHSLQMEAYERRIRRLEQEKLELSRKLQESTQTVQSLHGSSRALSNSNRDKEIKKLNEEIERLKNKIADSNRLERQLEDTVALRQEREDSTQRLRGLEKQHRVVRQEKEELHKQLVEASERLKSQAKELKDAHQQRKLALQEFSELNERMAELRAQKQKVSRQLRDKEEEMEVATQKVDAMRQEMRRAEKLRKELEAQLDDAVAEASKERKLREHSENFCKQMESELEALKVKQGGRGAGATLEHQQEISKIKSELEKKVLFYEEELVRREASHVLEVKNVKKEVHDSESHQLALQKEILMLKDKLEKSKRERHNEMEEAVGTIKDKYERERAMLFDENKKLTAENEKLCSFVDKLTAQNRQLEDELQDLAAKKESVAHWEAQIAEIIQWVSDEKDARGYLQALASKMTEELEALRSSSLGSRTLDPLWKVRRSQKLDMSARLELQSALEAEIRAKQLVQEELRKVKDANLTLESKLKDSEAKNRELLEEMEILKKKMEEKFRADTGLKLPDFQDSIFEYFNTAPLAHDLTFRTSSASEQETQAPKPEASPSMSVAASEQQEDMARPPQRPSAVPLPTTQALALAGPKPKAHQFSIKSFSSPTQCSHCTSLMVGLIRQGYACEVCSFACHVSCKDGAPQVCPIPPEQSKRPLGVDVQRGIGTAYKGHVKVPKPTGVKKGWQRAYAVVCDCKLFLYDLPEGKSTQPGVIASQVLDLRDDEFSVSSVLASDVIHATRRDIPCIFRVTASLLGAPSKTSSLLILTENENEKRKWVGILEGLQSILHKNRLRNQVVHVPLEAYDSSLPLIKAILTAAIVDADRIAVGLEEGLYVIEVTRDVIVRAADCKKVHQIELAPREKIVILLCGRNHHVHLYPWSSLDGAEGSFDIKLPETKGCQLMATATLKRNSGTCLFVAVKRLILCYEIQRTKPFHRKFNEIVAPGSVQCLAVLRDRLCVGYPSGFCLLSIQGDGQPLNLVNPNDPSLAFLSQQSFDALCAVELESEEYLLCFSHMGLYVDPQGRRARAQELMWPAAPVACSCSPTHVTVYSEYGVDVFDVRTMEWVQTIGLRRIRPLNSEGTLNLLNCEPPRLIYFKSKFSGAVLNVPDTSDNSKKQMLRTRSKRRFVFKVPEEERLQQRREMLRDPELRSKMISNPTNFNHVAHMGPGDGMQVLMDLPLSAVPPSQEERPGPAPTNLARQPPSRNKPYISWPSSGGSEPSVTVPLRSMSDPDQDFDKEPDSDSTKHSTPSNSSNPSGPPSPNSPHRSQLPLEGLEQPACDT

Sequence of LRRK2 (Q5S007 whole entry): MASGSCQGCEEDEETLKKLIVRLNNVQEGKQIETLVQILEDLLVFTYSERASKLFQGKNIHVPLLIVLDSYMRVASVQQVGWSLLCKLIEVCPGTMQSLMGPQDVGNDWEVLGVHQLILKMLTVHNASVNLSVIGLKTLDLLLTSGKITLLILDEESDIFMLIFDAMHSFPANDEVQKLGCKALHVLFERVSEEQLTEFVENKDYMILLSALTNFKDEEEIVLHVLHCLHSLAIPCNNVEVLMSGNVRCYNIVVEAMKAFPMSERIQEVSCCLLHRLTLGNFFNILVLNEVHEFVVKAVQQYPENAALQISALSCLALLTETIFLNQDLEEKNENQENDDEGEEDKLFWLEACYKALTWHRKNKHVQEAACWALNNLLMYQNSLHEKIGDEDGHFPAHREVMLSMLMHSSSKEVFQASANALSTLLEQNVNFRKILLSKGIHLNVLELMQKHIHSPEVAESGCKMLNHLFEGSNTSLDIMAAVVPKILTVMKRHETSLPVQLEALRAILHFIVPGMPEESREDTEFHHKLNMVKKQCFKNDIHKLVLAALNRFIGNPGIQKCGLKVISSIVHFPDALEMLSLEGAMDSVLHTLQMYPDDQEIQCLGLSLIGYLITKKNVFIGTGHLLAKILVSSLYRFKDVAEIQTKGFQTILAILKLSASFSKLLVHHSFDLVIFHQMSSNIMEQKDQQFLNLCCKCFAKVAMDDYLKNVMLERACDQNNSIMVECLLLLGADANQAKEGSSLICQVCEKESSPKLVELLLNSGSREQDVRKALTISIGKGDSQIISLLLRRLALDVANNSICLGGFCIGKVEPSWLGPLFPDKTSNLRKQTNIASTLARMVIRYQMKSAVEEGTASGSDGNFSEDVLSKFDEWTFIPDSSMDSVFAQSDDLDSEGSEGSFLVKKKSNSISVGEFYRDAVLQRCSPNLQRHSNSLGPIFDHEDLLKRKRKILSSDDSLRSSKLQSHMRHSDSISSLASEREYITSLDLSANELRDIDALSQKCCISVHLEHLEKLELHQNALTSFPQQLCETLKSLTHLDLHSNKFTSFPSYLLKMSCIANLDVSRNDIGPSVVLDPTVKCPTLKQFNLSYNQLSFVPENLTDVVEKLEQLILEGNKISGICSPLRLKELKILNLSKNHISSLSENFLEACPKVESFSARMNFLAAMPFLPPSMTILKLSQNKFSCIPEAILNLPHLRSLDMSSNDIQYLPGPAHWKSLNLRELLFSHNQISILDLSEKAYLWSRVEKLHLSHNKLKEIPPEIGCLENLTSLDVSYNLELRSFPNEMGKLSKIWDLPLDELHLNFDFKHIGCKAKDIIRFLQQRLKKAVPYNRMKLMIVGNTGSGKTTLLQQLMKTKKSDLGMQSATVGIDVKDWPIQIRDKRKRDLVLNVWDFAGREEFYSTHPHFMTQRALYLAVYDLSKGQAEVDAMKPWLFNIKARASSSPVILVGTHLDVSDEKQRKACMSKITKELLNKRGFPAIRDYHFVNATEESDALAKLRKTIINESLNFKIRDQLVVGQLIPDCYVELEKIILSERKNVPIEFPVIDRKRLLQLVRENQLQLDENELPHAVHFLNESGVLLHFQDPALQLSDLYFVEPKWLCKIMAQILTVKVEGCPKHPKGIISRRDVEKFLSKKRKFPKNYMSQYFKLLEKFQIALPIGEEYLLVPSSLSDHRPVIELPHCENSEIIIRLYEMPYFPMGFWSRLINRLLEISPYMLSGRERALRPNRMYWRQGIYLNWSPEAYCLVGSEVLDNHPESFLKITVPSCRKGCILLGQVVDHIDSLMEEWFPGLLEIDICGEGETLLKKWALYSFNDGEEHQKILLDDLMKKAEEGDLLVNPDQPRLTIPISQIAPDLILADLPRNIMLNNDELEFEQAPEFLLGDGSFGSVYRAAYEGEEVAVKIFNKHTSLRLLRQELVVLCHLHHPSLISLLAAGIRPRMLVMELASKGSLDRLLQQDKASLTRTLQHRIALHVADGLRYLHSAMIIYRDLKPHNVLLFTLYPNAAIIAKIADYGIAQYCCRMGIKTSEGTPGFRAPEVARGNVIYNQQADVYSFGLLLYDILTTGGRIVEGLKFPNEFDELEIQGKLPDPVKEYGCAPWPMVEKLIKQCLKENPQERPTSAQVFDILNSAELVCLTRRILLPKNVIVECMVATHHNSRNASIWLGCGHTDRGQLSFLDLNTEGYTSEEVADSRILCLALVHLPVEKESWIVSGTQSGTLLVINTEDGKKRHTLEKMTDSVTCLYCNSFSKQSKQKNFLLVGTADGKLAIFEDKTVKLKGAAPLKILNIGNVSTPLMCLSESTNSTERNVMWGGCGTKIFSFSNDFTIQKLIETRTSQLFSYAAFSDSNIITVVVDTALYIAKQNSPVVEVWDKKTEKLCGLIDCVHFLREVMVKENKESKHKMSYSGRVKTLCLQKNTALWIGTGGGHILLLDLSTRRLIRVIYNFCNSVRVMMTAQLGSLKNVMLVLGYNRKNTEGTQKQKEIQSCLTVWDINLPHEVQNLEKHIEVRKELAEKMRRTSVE

| Structure (SMILES) | remaining activity at 1 µM (SYK) | % enzyme activity (LRRK2) | % enzyme activity (NEK1) | remaining activity at 1 µM (CAMK2g) | % enzyme activity (STK22D/TSSK1) | remaining activity at 1 µM (BRSK2) | % enzyme activity (MRCKb/CDC42BPB) |
| --- | --- | --- | --- | --- | --- | --- | --- |
| COc1cc(-c2cncc(-c3ccc(N4CCN(C)CC4)cc3)c2C)cc(F)c1C(N)=O [Compound 26a, 2-Fluoro-6-methoxy-4-(4-methyl-5-(4-(4-methylpiperazin-1-yl)phenyl)pyridin-3-yl)benzamide] | 101% | 59.73% | 84.54% | 103% | 97.01% | 61.3% | 94.42% |
| COc1cc(-c2cncc(-c3ccc(N4C[C@@H](C)N(C)[C@@H](C)C4)cc3)c2C)cc(F)c1C(N)=O [Compound 26c, 2-Fluoro-6-methoxy-4-(4-methyl-5-(4-((3R,5S)-3,4,5-trimethylpiperazin-1-yl)phenyl)pyridin-3-yl)benzamide] | 102% | 77.27% | 84.46% | 110% | 99.16% | 77.9% | 99.47% |
